Experimental data from article PMC6151488, “Structure, Absolute Configuration, and Antiproliferative Activity of Abietane and Icetexane Diterpenoids from Salvia ballotiflora” (Molecules : A Journal of Synthetic Chemistry and Natural …, 2017).
Where “and” joins values, the source holds several entries; their conditions need not be identical. Identical values can stand only once. Like-named read-outs stand apart in the source and are kept apart here.

Legend:
[1] = system: U251 (human glioblastoma); assay: Sulforhodamine B (SRB) cytotoxicity assay, U251; format: cell-based; settings: for inhibition at 50 µM: primary screening at 50.0 μM, NC = No cytotoxic
Description: (§1) The natural products were screened in vitro against the following human cancer cell lines: human mammary adenocarcinoma (MCF-7), human chronic myelogenous leukemia (K562), human glioblastoma (U251), human lung adenocarcinoma (SKLU-1), human colon cancer (HCT-15), human prostate cancer (PC-3), healthy gingival human fibroblasts (FGH), and normal monkey kidney cell lines, which were supplied by the National Cancer Institute (NCI, USA) and American Type Culture Collection (ATTC). The human tumor cytotoxicity was determined using the protein-binding dye sulforhodamine B (SRB) in a microculture assay to measure cell growth, as described in the protocol established by the NCI [30]. The cell lines were cultured in RPMI-1640 medium supplemented with 10% fetal bovine serum, 2 mM L-glutamine, 10,000 units/mL penicillin G sodium, 10,000 μg/mL streptomycin sulfate, and 25 μg/mL amphotericin B (Gibco), and 1% non-essential amino acids (Gibco). They were maintained at 37 °C in a humidified atmosphere with 5% CO2.
(§2) Cytotoxicity after treatment of the tumors cells and normal cells with the test compounds were determined using the protein-binding dye sulforhodamine B (SRB) in a microculture assay to measure cell growth. The cells were removed from the tissue culture flasks by treatment with trypsin, and diluted with fresh media. Of these cell suspensions, 100 μL containing 5000–10,000 cells per well were pipetted into 96-well microtiter plates (Costar) and the material was incubated at 37 °C for 24 h in a 5% CO2 atmosphere. Subsequently, 100 μL of a solution of the compound obtained by diluting the stocks were added to each well. The cultures were exposed to the compound for 48 h. After the incubation period, cells were fixed to the plastic substratum by the addition of 50 μL of cold 50% aqueous trichloroacetic acid. The plates were incubated at 4 °C for 1 h, washed with tap water, and air-dried. The trichloroacetic-acid-fixed cells were stained by the addition of 0.4% SRB. The free SRB solution was then removed by washing with 1% aqueous acetic-acid. The plates were air-dried, and the bound dye was dissolved by the addition of 10 mM unbuffered Tris base (100 μL). The plates were placed on a shaker for 10 min, and the absorption was determined at 515 nm using an ELISA plate reader (Bio-Tex Instruments).

[2] = system: SKLU-1 (human lung adenocarcinoma); assay: Sulforhodamine B (SRB) cytotoxicity assay, SKLU-1; format: cell-based; settings: for inhibition at 50 µM: primary screening at 50.0 μM, NC = No cytotoxic; for IC50: SRB assay, 48 h exposure, mean ± SD, read-out: IC50 antiproliferative activity, SKLU-1
Description: as §1, with “CO2. The viability of the cells used in the experiments exceeded 95%, as determined with trypan blue.” for “CO2.”
as §2

[3] = system: K562 (human chronic myelogenous leukemia); assay: Sulforhodamine B (SRB) cytotoxicity assay, K562; format: cell-based; settings: for IC50: SRB assay, 48 h exposure, mean ± SD, read-out: IC50 antiproliferative activity, K562; for inhibition at 50 µM / Antiproliferative activity (%), K562: primary screening at 50.0 μM, NC = No cytotoxic
Description: as §1, with “CO2. The viability of the cells used in the experiments exceeded 95%, as determined with trypan blue.” for “CO2.”
as §2

[4] = system: MCF-7 (human mammary adenocarcinoma); assay: Sulforhodamine B (SRB) cytotoxicity assay, MCF-7; format: cell-based; settings: for IC50 / inhibition at 50 µM: Homo sapiens, MCF7; for IC50: SRB assay, 48 h exposure, mean ± SD, read-out: IC50 antiproliferative activity, MCF-7; for inhibition at 50 µM / Antiproliferative activity (%), MCF-7: mean n = 2, NC = No cytotoxic; for inhibition at 50 µM: read-out: Antiproliferative activity (%), MCF-7
Description: as §1, with “CO2. The viability of the cells used in the experiments exceeded 95%, as determined with trypan blue.” for “CO2.”
as §2

[5] = system: PC-3 (human prostate cancer); assay: Sulforhodamine B (SRB) cytotoxicity assay, PC-3; format: cell-based; settings: for inhibition at 50 µM: primary screening at 50.0 μM, mean n = 2, NC = No cytotoxic, read-out: Antiproliferative activity (%), PC-3
Description: as §1, with “CO2. The viability of the cells used in the experiments exceeded 95%, as determined with trypan blue.” for “CO2.”
as §2

[6] = system: HCT-15 (human colon cancer); assay: Sulforhodamine B (SRB) cytotoxicity assay, HCT-15; format: cell-based; settings: for inhibition at 50 µM: primary screening at 50.0 μM, mean n = 2, NC = No cytotoxic, read-out: Antiproliferative activity (%), HCT-15
Description: as §1, with “CO2. The viability of the cells used in the experiments exceeded 95%, as determined with trypan blue.” for “CO2.”
as §2

[7] = system: healthy gingival human fibroblasts (FGH); assay: Sulforhodamine B (SRB) cytotoxicity assay, FGH primary culture; format: cell-based; settings: primary screening at 50.0 μM; mean n = 2; NC = No cytotoxic
Description: as §1, with “[…] The viability of the cells used” for “They were maintained at 37 °C”, “the experiments exceeded 95%, as determined” for “a humidified atmosphere”, “trypan blue.” for “5% CO2.”
(§3) Cytotoxicity after treatment of the tumors cells and normal cells with the test compounds were determined using the protein-binding dye sulforhodamine B (SRB) in a microculture assay to measure cell growth. […] The plates were placed on a shaker for 10 min, and the absorption was determined at 515 nm using an ELISA plate reader (Bio-Tex Instruments).

[8] = system: six human cancer cell lines (U251, PC-3, K562, HCT-15, MCF-7, SKLU-1) and FGH; assay: SRB primary screening, whole panel (result in words); format: cell-based; settings: primary screening at 50 μM; cancer cell lines other than K562 and MCF-7
Method: The same biological activity was also recently described for icetexane-derivatives isolated from Premna and Amentotaxus species. […] These facts prompted us to assay diterpenoids 3, 4, 6–8 and 10 for antiproliferative activity using six human cancer cell lines (U251, PC-3, K562, HCT-15, MCF-7, and SKLU-1), and a primary culture of healthy gingival human fibroblasts (FGH) at 1.0 or 50.0 μM (when cytotoxicity at 50.0 μM results were too high). […] Overall, the antiproliferative activity determined for 7 was lower than that observed for 6.
as §1, with “CO2. The viability of the cells used in the experiments exceeded 95%, as determined with trypan blue.” for “CO2.”
as §3

[9] = Scavenging activity on free radical DPPH; settings: at 100 μM; 30 min, 37 °C
Method: Free radical scavenging activity was measured using an adapted method of Mellors and Tappel. The test was carried out in 96-well microplates. A 50-μL aliquot of the solution of the test compound was mixed with 150 μL of an ethanol solution of DPPH (final concentration 100 μM). The mixture was incubated at 37 °C for 30 min, and the absorbance was then measured at 515 nm using a BioTek microplate reader SYNERGY HT. The percent inhibition was determined by comparison with a 100-μM DPPH ethanol blank solution.

[10] = system: COS-7 normal monkey kidney; assay: Sulforhodamine B (SRB) cytotoxicity assay, COS-7 normal cell line; format: cell-based; settings: Primates, mean ± SD
Description: as §1, with “CO2. The viability of the cells used in the experiments exceeded 95%, as determined with trypan blue.” for “CO2.”
as §2, with “The plates were incubated at 4 °C for 1 h, washed with tap water, and air-dried. The trichloroacetic-acid-fixed cells were stained by the addition of 0.4% SRB. The free SRB solution was then removed by washing with 1% aqueous acetic-acid. The plates were air-dried, and the bound dye was dissolved by the addition of 10 mM unbuffered Tris base (100 μL).” left out

TPA-induced ear edema = TPA-induced ear edema test in mice; format: in vivo; settings: mice CD-1, 1.0 μmol ear^-1 topical, 4 h after TPA, mean ± SEM; for Inhibition of Edema (%): NA = Non-active
Method: Male CD-1 mice weighing 25–30 g were maintained under standard laboratory conditions in the animal house (temperature 24 ± 2 °C) in a 12/12 h light/dark cycle, fed a laboratory diet and water ad libitum, following the Mexican official norm NOM-062-Z00-1999.
The TPA-induced ear edema assay in mice was performed as reported in reference. A solution of TPA (2.5 μg) in ethanol (10 μL) was applied topically to both faces (5 μL each ear) of the right ear of the mice, 10 min after solutions of the test substances in their respective solvents were applied (10 μL each face). The left ear received ethanol (10 μL) first, followed by 20 μL of the respective solvent. The mice were killed with CO2 four hours later. A 7-mm diameter plug was removed from each ear. The swelling was assessed as the difference in weight between the left and the right ear. Control animals received the correspondent solvent in each case. Edema inhibition (EI %) was calculated by the equation EI % = 100 − (B × 100/A), where A is the edema induced by TPA alone and B is the edema induced by TPA plus the sample. Indomethacin and celecoxib were used as reference compounds.

HeLa cells = system: HeLa cells; design: method as in doi:10.1016/j.bjp.2017.01.007; settings: similar activity when compared to cisplatin; cited from earlier work
[11] = Homo sapiens, U-251, mean n = 2, read-out: Antiproliferative activity (%), U251
[12] = Homo sapiens, SK-LU-1, mean n = 2, read-out: Antiproliferative activity (%), SKLU-1
[13] = Homo sapiens, K562, mean n = 2, read-out: Antiproliferative activity (%), K562
[14] = primary screening at 1.0 μM, mean n = 2

Compound	inhibition at 50 µM [1, 11] [%]	inhibition at 50 µM [2, 12] [%]	IC50 ([3]; Homo sapiens, K562) [µM]	inhibition at 50 µM [3, 13] [%]	Antiproliferative activity (%), K562 ([3]; mean n = 2)	IC50 [4] [µM]	inhibition at 50 µM ([4]; primary screening at 50.0 μM) [%]	Antiproliferative activity (%), MCF-7 ([4]; primary screening at 50.0 μM)	inhibition at 50 µM [5] [%]	inhibition at 50 µM [6] [%]	Antiproliferative activity (%), FGH [7]	DPPH inhibitory effect (%) [9] [%]	Edema (TPA-induced ear edema) [mg]	Inhibition of Edema (%) (TPA-induced ear edema)	melting point [°C]	further results
CC(C)C1=C(O)C(=O)C2=C(C=C[C@@H]3[C@]4(CCC[C@]3(C)C(=O)O4)C2)C1=O [Compound 8, icetexone]	35.8	52.9	17 ± 1.4	83.1	significant antiproliferative activity	28.7 ± 1.6	71.6	significant antiproliferative activity	39.6	29	lacked of toxicity	3.7				Activity against all other tested cancer cell lines (in words) [8]: moderately active
CC(=O)OC1CC2C3(CCCC2(C)C(=O)O3)CC2=C1C(=O)C(C(C)C)=C(O)C2=O (stereo not drawn) [Compound 3, 7α-Acetoxy-6,7-dihydroicetexone]												6.1	9.87 ± 0.44	37.4 ± 2.8% and 37.42 ± 2.77 %	110 to 115	inhibition at 1 µM ([1]; Homo sapiens, U-251, primary screening at 1.0 μM, mean n = 2, read-out: Antiproliferative activity (%), U251): 65.4%; Antiproliferative activity (%), U251 [1, 14]: moderately active; SI (selectivity index), U251 ([1]; quotient of IC50 of COS-7 / IC50 of U251): 1.2; IC50 ([2]; Homo sapiens, SK-LU-1, 48 h): 0.46 ± 0.05 µM; inhibition at 1 µM ([2]; Homo sapiens, SK-LU-1, primary screening at 1.0 μM, mean n = 2, read-out: Antiproliferative activity (%), SKLU-1): 64.5%; IC50 [2]: 0.82 ± 0.06 µM; Antiproliferative activity (%), SKLU-1 [2, 14]: moderately active; SI (selectivity index), SKLU-1 ([2]; quotient of IC50 of COS-7 / IC50 of SKLU-1): 2.0; IC50 [10]: 1.62 ± 0.1 µM; inhibition at 1 µM ([3]; Homo sapiens, K562, primary screening at 1.0 μM, mean n = 2, read-out: Antiproliferative activity (%), K562): 48.6%; Antiproliferative activity (%), MCF-7 ([4]; primary screening at 1.0 μM): non-toxic; inhibition at 1 µM ([5]; primary screening at 1.0 μM, mean n = 2, read-out: Antiproliferative activity (%), PC-3): 34.2%; inhibition at 1 µM ([6]; primary screening at 1.0 μM, mean n = 2, read-out: Antiproliferative activity (%), HCT-15): 33.4%
19-deoxyisoicetexone																IC50 (HeLa cells): 9.36 µM
CC(C)C1=C(O)C(=O)C2=C(CC3OC(=O)C4(C)CCC=C(C2)C34)C1=O (stereo not shown) [Compound 7, 7,20-Dihydroanastomosine]	10.1	46.5	31.2 ± 1.1	63.2	moderate toxicity	33.2 ± 1.2	62.6	moderate toxicity	17.8	26.8	non-toxic	6.6	15.50 ± 0.76	non-active	223 to 227	
